# Measured values published in article PMC7389181, “The interaction with fungal cell wall polysaccharides determines the salt tolerance of antifungal plant defensins” (The Cell Surface, 2019).
# Assays:
# C. albicans = assay: Checkerboard synergy assay with polysaccharide synthesis inhibitors; type: cell-based, Candida albicans; conditions: for MIC: Candida albicans, read-out: MIC of polysaccharide synthesis inhibitor alone
# Protocol: (§1) Saccharomyces cerevisiae deletion strains were retrieved from the haploid non-essential deletion collection (ThermoScientific) and were isogenic with the wild type BY4741 (MATa his3Δ1 leu2Δ0 met15Δ0 ura3Δ0). Candida albicans experiments were performed with strain ATCC90028.
# (§2) Antifungal assays were performed as described in ([Bleackley et al., 2014]). S. cerevisiae cells were prepared by diluting to an OD600 = 0.01 and C. albicans cells were diluted to OD600 = 0.0002 in ½ strength potato dextrose broth (1/2 PDB) (Becton Dickinson). Assays investigating the combined effect of chemical cell wall synthesis inhibitors with defensins were performed as described in ([Bleackley et al., 2017]). Synergy was assessed using the fractional inhibitory concentration (FIC) equation. FIC=MICAcombination/MICAalone+MICBcombination/MICBalone
# (§3) Synergy is defined as an FIC value of less than 0.5. Assays investigating the activity of defensins in salt were set up using the same checkerboard method as the synergy assays but with NaCl in place of one of the antifungal molecules.
# S. cerevisiae BY4741 [1] = assay: Antifungal growth assay, wild type; type: cell-based, Saccharomyces cerevisiae; conditions: 1/2 PDB, twofold dilution series, lowest concentration with no visible growth, three independent experiments
# Protocol: as §1, §2
# S. cerevisiae fks1Δ = assay: Antifungal growth assay, 1,3-β-glucan synthase deletion strain; type: cell-based, Saccharomyces cerevisiae; conditions: 1/2 PDB, twofold dilution series, lowest concentration with no visible growth, three independent experiments
# Protocol: as §1, §2
# [2] = Polysaccharide binding (solution depletion) to chitin; parameters: species or system shrimp; conditions: one-site binding model
# Protocol: (§4) Defensin binding to polysaccharides was examined using the protocol described in ([Osmond et al., 2001]) with some modifications. Briefly, the insoluble polysaccharides, yeast β-glucan (Megazyme), chitin from shrimp shells (Sigma), and microcrystalline cellulose (Sigma) were washed twice with water and once with phosphate buffered saline (PBS) and resuspended in PBS at 100 mg/mL. The appropriate volume of polysaccharide suspension was transferred to a 1.5 mL microfuge tube. PBS was added to increase the volume to 47.5 µL followed by defensin (2.5 µL of 0.8 mg/mL in H2O). This mixture was incubated on a rotating wheel at room temperature for 30 min before insoluble polysaccharide was pelleted at 17 000 g. Supernatant (25 µL) was transferred to a clean 1.5 mL microfuge tube, mixed with 5 µL of a 1:9 mix of Bond Breaker reducing agent (ThermoFisher):NuPage LDS Loading Buffer (Invitrogen) and heated to 95 °C for 20 min. Samples (20 µL) were loaded onto a 10% NOVEX Bolt BisTris gel (Life Technologies). Proteins were visualized by staining with RAPIDstain (Calbiochem) and imaged on a ChemiDoc (Bio-Rad). Densitometry was performed on resulting bands using the quantitation tool in ImageLab (V4.0 Bio-Rad) and the abundance of defensin remaining in the supernatant was calculated relative to the no polysaccharide control. Relative binding to the pellet was inferred as the amount of defensin that had been depleted from the supernatant (1-relative binding to pellet). All experiments were performed in triplicate. Kd values were calculated by plotting the relative binding vs the polysaccharide concentration in Prism (V7.0 GraphPad) and using the non-linear regression tool with the one-site binding hyperbola equation.
# [3] = Polysaccharide binding (solution depletion) to yeast β-glucan; conditions: one-site binding model
# Protocol: as §4
# S. cerevisiae [4] = assay: Growth inhibition in varying NaCl (checkerboard); type: cell-based, Saccharomyces cerevisiae; conditions: 1/2 PDB; for Effect of increasing NaCl concentration on growth inhibitory activity: NaCl checkerboard up to about 100 mM, representative of three independent replicates
# Protocol: as §2, §3
# S. cerevisiae chs3Δ = assay: Antifungal growth assay, chitin synthase deletion strain; type: cell-based, Saccharomyces cerevisiae; conditions: 1/2 PDB, twofold dilution series, lowest concentration with no visible growth, three independent experiments
# Protocol: as §1, §2
# S. cerevisiae [5] = assay: Checkerboard synergy assay with polysaccharide synthase inhibitors; type: cell-based, Saccharomyces cerevisiae; conditions: average of three independent experiments ± standard deviation, synergy FIC <0.5
# Protocol: as §2, §3
# yeast spheroplasts = assay: Cell death of spheroplasts, SYTOX green flow cytometry; type: cell-based, Saccharomyces cerevisiae
# Protocol: (§5) Spheroplasts were prepared as outlined in ([Guthrie and Fink, 2002]) with modifications. Cells were prepared with and without the addition of zymolyase (Sigma) and washed twice with ½ PDB with 1 M sorbitol prior to any defensin treatment. Successful hydrolysis of the cell wall was assessed by pelleting an aliquot of spheroplasts, resuspending in MilliQ H2O and assessing cell lysis. For survival assays, intact cells or spheroplasts were diluted in ½ PDB with 1 M sorbitol to an OD600 = 1. NaD1 (10 µL) at 0, 25, 50 or 100 µM was added to 90 µL of prepared cells or spheroplasts and incubated at 30 °C for 30 min. Serial dilutions of each treatment were plated onto YPD and incubated for 24 h at 30 °C prior to imaging. Assessment of the effect of NaCl on the activity of NaD1 on spheroplasts was conducted as described above except for the addition of 100 mM NaCl to the ½ PDB 1 M sorbitol in the appropriate treatment. The cell death indicator, SYTOX green (ThermoFisher), was added to all treatments to a final concentration of 1 µM and FACS analysis was performed using a FACS Canto II (BD biosciences) using the FITC settings. Analysis was performed using Weasel V3.0 (Walter and Eliza Hall Institute of Medical Research).
# [6] = Polysaccharide binding (solution depletion) to cellulose; conditions: SDS-PAGE analysis of supernatant, 3 independent experiments
# Protocol: as §4, with “Samples (20 µL) were loaded onto a 10% NOVEX Bolt BisTris gel (Life Technologies). Proteins were visualized by staining with RAPIDstain (Calbiochem) and imaged on a ChemiDoc (Bio-Rad).” left out, “Relative binding to the pellet was inferred as the amount of defensin that had been depleted from the supernatant (1-relative binding to pellet). All experiments were performed in triplicate.” left out
# [7] = system: yeast cells with intact cell walls; assay: Cell death of intact yeast cells, SYTOX green flow cytometry; type: cell-based, Saccharomyces cerevisiae
# Protocol: as §5
# S. cerevisiae BY4741 [8] = assay: Survival assay in the presence of exogenous 1,3-β-glucan (laminarin); type: cell-based, Saccharomyces cerevisiae; conditions: plated on YPD agar; for Laminarin concentration protecting against the antifungal activity of NaD1: 20 µM NaD1, 1 h
# Protocol: To assess the effect of exogenous 1,3-β-glucan on the activity of NaD1, a survival assay was employed essentially as described in ([Bleackley et al., 2017]). A two-fold dilution series of laminarin (Sigma) from 50 mg/mL was prepared in MilliQ H2O and 10 µL of each concentration plus a no laminarin control were transferred to the wells of a U-bottom 96 well microtitre plate (Greiner Bio-one). NaD1 (10 µL of 200 µM solution) was added to each laminarin preparation. Controls with no NaD1 or laminarin were also prepared. An overnight culture of S. cerevisiae BY4741 cells was diluted to OD600 = 0.1 in ½ PDB. The diluted yeast cell suspension was then added to each of the wells of the microtitre plate and incubated at 30 °C with shaking at 750 rpm in a Thermomixer (Eppendorff) for 1 h. A fivefold dilution series of each treatment was then spotted onto YPD agar (1% yeast extract, 2% peptone, 2% dextrose, 2% agar) and incubated at 30 °C prior to imaging.
# [9] = insoluble polysaccharide in PBS, 30 min room temperature, SDS-PAGE densitometry of supernatant, Kd based on concentration of monosaccharide units, ± SEM, three independent replicates
# [10] = C. albicans checkerboard, synergy defined as FIC < 0.5
# [11] = solution depletion, SDS-PAGE densitometry, polysaccharide mass concentration, 3 independent experiments
compound,measurement,setting,value
"CC[C@H](C)C[C@H](C)CCCCCCCCC(=O)N[C@H]1C[C@@H](O)[C@@H](NCCN)NC(=O)[C@@H]2[C@@H](O)CCN2C(=O)[C@H]([C@H](O)CCN)NC(=O)[C@H]([C@H](O)[C@@H](O)c2ccc(O)cc2)NC(=O)[C@@H]2C[C@@H](O)CN2C(=O)[C@H]([C@@H](C)O)NC1=O [caspofungin, reference compound]",MIC,C. albicans,0.25 µg/mL
"C[C@@H]([C@H](N)C(=O)N[C@H](C(=O)O)[C@H]1O[C@@H](n2ccc(=O)[nH]c2=O)[C@H](O)[C@@H]1O)[C@H](O)c1ccc(O)cn1 [nikkomycin Z, reference compound]",MIC,C. albicans,2.5 µg/mL
"DmAMP1: defensin from Dahlia merckii expressed in Pichia pastoris (ELCEKASKTWSGNCGNTGHCDNQCKSWEGAAHGACHVRNGKHMCFCYFNC; UniProt P0C8Y4 1-50, looked up)",MIC,S. cerevisiae BY4741 [1],0.31 µM
same,MIC,S. cerevisiae fks1Δ,0.16 µM
same,"Kd, chitin",[2]; [9],Neither TsD10 nor DmAMP1 bound
same,"Kd, β-glucan",[3]; [9],No binding
same,Effect of increasing NaCl concentration on growth inhibitory activity,S. cerevisiae [4],no loss of growth inhibitory activity
same,Concentration completely inhibiting growth,"S. cerevisiae [4]; absence of added NaCl, absorbance at 595 nm",0.313 µM
same,MIC,S. cerevisiae chs3Δ,0.31 µM
same,FIC in combination with caspofungin,S. cerevisiae [5],0.6 ± 0.06
same,FIC in combination with nikkomycin,S. cerevisiae [5],0.64 ± 0.16
"NaD1: plant defensin from the ornamental tobacco Nicotiana alata, isolated from flowers (RECKTESNTFPGICITKPPCRKACISEKFTDGHCSKILRRCLCTKPC; UniProt Q8GTM0 26-72, looked up)",MIC,S. cerevisiae BY4741 [1],2.5 µM
same,NaD1 concentration giving significant cell death,"yeast spheroplasts; 1 M sorbitol with 100 mM NaCl, SYTOX green",≥ 0.313 µM
same,Cell death (SYTOX green),"yeast spheroplasts; NaD1 concentrations above 0.625 µM, 1/2 PDB with 1 M sorbitol, 30 °C 30 min",over 60%
same,Binding to cellulose,[6],did not bind
same,FIC in combination with caspofungin,C. albicans; [10],0.3
same,FIC in combination with nikkomycin Z,C. albicans; [10],0.92
same,MIC,S. cerevisiae fks1Δ,1.25 µM
same,Kd,[2]; [9],33 ± 11.8 mM
same,"Kd, chitin",[2]; [11],6.7 ± 2.4 mg/mL
same,Effect on cell death,"[7]; 1 M sorbitol with 100 mM NaCl, up to 10 µM NaD1, SYTOX green",unaffected
same,Cell death (SYTOX green),"[7]; NaD1 5 µM, 1/2 PDB with 1 M sorbitol, 30 °C 30 min",60%
same,Kd,[3]; [9],25.9 ± 5 mM
same,"Kd, β-glucan",[3]; [11],4.2 ± 0.8 mg/mL
same,Effect of increasing NaCl concentration on growth inhibitory activity,S. cerevisiae [4],progressively poorer inhibitor
same,Survival of yeast cells,"S. cerevisiae BY4741 [8]; 20 µM NaD1, absence of laminarin, 1 h",eliminated all viable yeast cells
same,MIC,S. cerevisiae chs3Δ,2.5 µM
same,FIC in combination with caspofungin,S. cerevisiae [5],0.3 ± 0.06
laminarin,Laminarin concentration protecting against the antifungal activity of NaD1,S. cerevisiae BY4741 [8],≥ 1.25 mg/mL
same,Laminarin concentration protecting against the antifungal activity of NaD1,S. cerevisiae BY4741 [8]; listed as Laminarin,above 1.25 mg/mL
